Test results taken from patent publication US9714240B2 (PharmAkea, Inc., priority 2013, dated 2017).

Molecular target: T1, human autotaxin (Homo sapiens, UniProt Q13822)
T1 construct: Conditioned media is collected from confluent Hep3B cells and concentrated 20-fold; endogenous in cells; host or cells: Hep3B human hepatocellular carcinoma cells (concentrated conditioned medium)
Assay: Human Autotaxin Assay (choline release from LPC)
Type: biochemical
Details: ATX in concentrated conditioned media from Hep3B cells, substrate LPC 14:0 100 uM, absorbance at 555 nm
Procedure: ATX activity is assayed in concentrated conditioned media from Hep3B human hepatocellular carcinoma cells by measuring the amount of choline released from the substrate, lysophosphatidylcholine (LPC) as it is cleaved to LPA. Conditioned media is collected from confluent Hep3B cells and concentrated 20-fold using Centriprep-30 filter devices (Millipore). To assay for autotaxin inhibition, 10-20 μL of the concentrated conditioned media is incubated with 2.5 μL of a test compound in DMSO and 72.5-82.5 μL lyso-PLD buffer (100 mM Tris pH 9, 500 mM NaCl, 5 mM MgCl2, 5 mM CaCl2, 0.05% Triton X-100 in the presence or absence of 0.2% fatty-acid-free human serum albumin) for 15 min at 37° C. After the 15 min incubation, 5 ul of 2 mM LPC (14:0; Avanti Polar Lipids Cat#855575C) diluted in lyso-PLD buffer is added for a final concentration of 100 uM and the incubation continues for 1.5-3 hours at 37° C. 100 μl of a color mix containing 4.5 mM 4-aminoantipyrine, 2.7 mM N-ethyl-N-(2-hydroxy-3-sulfopropyl)-m-toluidine, 21 units/ml horseradish peroxidase and 3 units/ml choline oxidase in 50 mM Tris, pH 8, 4.5 mM MgCl2 is added and the incubation continued for 15 minutes at room temperature before reading the absorbance at 555 nm.

IC50 [nM]	SMILES
≤ 500	N#C/C(=C\c1cn(Cc2ccc(F)cc2)c2cc(OC(F)(F)F)ccc12)c1ccc(C(=O)O)cc1 [Compound 1-75, (Z)-4-(1-cyano-2-(1-(4-fluorobenzyl)-6-trifluoromethoxy-1H-indol-3-yl)vinyl)benzoic Acid]
500 to 10000	N#C/C(=C\c1cn(Cc2ccc(OC(F)F)cc2F)c2cc(Cl)ccc12)c1ccc(C(=O)O)cc1 [Compound 1-47, (Z)-4-(2-(6-chloro-1-(4-(difluoromethoxy)-2-fluorobenzyl)-1H-indol-3-yl)-1-cyanovinyl)benzoic Acid]
> 10000	N#C/C(=C\c1cn(Cc2cc(C(F)(F)F)cc(C(F)(F)F)c2)c2cc(Cl)ccc12)c1ccc(C(=O)O)cc1 [Compound 1-20, 4-[(Z)-2-[1-[[3,5-bis(trifluoromethyl)phenyl]methyl]-6-chloro-indol-3-yl]-1-cyano-vinyl]benzoic Acid]
500 to 10000	N#C/C(=C\c1cn(CCCc2ccccc2)c2cc(Cl)ccc12)c1ccc(C(=O)O)cc1 [Compound 1-24, 4-[(Z)-2-[6-chloro-1-(3-phenylpropyl)indol-3-yl]-1-cyano-vinyl]benzoic Acid]
≤ 500	N#C/C(=C\c1cn(Cc2cnc(C(F)(F)F)s2)c2cc(Cl)ccc12)c1ccc(C(=O)O)cc1 [Compound 1-15, 4-[(Z)-2-[6-chloro-1-[[2-(trifluoromethyl)thiazol-5-yl]methyl]indol-3-yl]-1-cyano-vinyl]benzoic Acid]
≤ 500	N#C/C(=C\c1cn(Cc2cnc(C(F)(F)F)s2)c2c(F)c(Cl)ccc12)c1ccc(C(=O)O)cc1 [Compound 1-52]
500 to 10000	CCOc1ncc(Cn2cc(/C=C(\C#N)c3ccc(C(=O)O)cc3)c3ccc(Cl)cc32)s1 [Compound 1-17, 4-[(Z)-2-[6-chloro-1-[(2-ethoxythiazol-5-yl)methyl]indol-3-yl]-1-cyano-vinyl]benzoic Acid]
500 to 10000	N#C/C(=C\c1cn(Cc2ccccc2)c2cc(Cl)ccc12)c1cccc(C(=O)O)c1 [Compound 2-4, 3-[(Z)-2-(1-benzyl-6-chloro-indol-3-yl)-1-cyano-vinyl]benzoic Acid]
≤ 500	N#C/C(=C\c1cn(Cc2ccc(F)cc2)c2cc(F)ccc12)c1ccc(C(=O)O)cc1 [Compound 1-7, 4-[(Z)-1-cyano-2-[6-fluoro-1-[(4-fluorophenyl)methyl]indol-3-yl]vinyl]benzoic Acid]
≤ 500	N#C/C(=C\c1cn(Cc2ccc(F)cc2)c2cc(F)cc(F)c12)c1ccc(C(=O)O)cc1 [Compound 1-11, 4-[(Z)-1-cyano-2-[4,6-difluoro-1-[(4-fluorophenyl)methyl]indol-3-yl]vinyl]benzoic Acid]
500 to 10000	N#C/C(=C\c1cn(Cc2ccc(F)cc2)c2cccc(Cl)c12)c1ccc(C(=O)O)cc1 [Compound 1-2, 4-[(Z)-1-cyano-2-[4-chloro-1-[(4-fluorophenyl)methyl]indol-3-yl]vinyl]benzoic Acid]
